Tests used:
[1] = system: astrocyte/neuron co-culture; assay: Brain cell damage induced by hydrogen peroxide treatment (LDH assay); assay type: cell-based; conditions: Rattus norvegicus, hydrogen peroxide (250 μM), 24 hours, read-out: 50% inhibition concentration against cell damage in entire co-culture system (EC50 value)
Procedure: (§1) The brain was removed from 1 to 2 day old Wistar rats (Charles River) or Sprague-Dawley (IGS) rats (Charles River), and the cerebral cortex including the hippocampus was excised under ice cooling. After this cerebral cortex was minced, it was digested with papain solution (9 U/ml) containing DNase I (30 U/ml) at 37 degrees Celsius for 15 minutes, dispersing the cells. After further carrying out mechanical dispersing by pipetting, it was passed through a cell strainer with a pore size of 70 μm, and a cell suspension was obtained. Cells derived from 1.4 cerebra were seeded on 150 mm tissue culture dish (Iwaki Glass), and primary culture was carried out at 37 degrees Celsius and 5% CO2 using a D-MEM medium (Invitrogen) containing 10% heat-inactivated fetal calf serum (JRH). One day after the start of the culture, the nonadherent cells were removed, and the primary cultured astrocytes were obtained by continuing the culture for 4 to 5 further days. The primary cultured astrocytes were dispersed by trypsin treating, suspended in cryopreservation solution, and cryopreserved.
(§2) After thawing the cryopreserved primary cultured astrocytes, they were seeded on tissue culture plates (Iwaki Glass), and a confluent astrocyte layer was produced by a further 7 days of secondary culture using a D-MEM medium containing 10% heat-inactivated fetal calf serum. Neurons to be used in the co-culture with the astrocyte layer were obtained from fetal rat cerebrum. Briefly, brains were removed from Wistar rats (Charles River) or Sprague-Dawley (IGS) rats (Charles River) of embryonic age 18.5 days, and the cerebral cortex including the hippocampus was excised under ice cooling. After this cerebral cortex was minced, it was digested in papain solution (9 U/ml) containing DNase I (30 U/ml) at 37 degrees Celsius for 15 minutes, dispersing the cells. After further carrying out mechanical dispersing by pipetting, it was passed through a cell strainer with a pore size of 70 μm, and a cell suspension was obtained. This cell suspension was plated at a density of 1.3×10^5 cells/cm^2 on the astrocyte layer, and a co-culture was carried out using D-MEM/F-12 medium (Invitrogen) containing 10% heat-inactivated fetal calf serum and 5% horse serum (Invitrogen). 2 days after the start of the co-culture, cells were treated for 24 hours with 10 μM cytosine arabinoside in order to suppress the excessive cell proliferation of microglia and the like. 8 to 9 days after the start of the co-culture, cells were used for the test. Additionally, using one portion of the cells, immunofluorescent staining and nuclear staining was carried out with astrocyte recognizing antibodies (anti-GFAP) and neuron recognizing antibodies (anti-MAP2), in order to confirm that the present culture system is a co-culture system of astrocytes and neurons.
(§3) An astrocyte/neuron co-culture cultured on a 96 well plate was used in the test. A predetermined concentration of the test substance and hydrogen peroxide (250 μM) was simultaneously added to the cell culture in each well with continuing cultivation, and analysis was done 24 hours after this treatment. Using an LDH Cytotoxicity Detection Kit (Takara Bio), analysis was carried out in accordance with the included instruction manual, and the damage to the entire co-culture system by the hydrogen peroxide treatment and the protective effect (EC 50 value) of the test substance was evaluated. Further, the cell bodies and the neuronal processes of the neurons were observed by microscope, and the neuroprotective effect was evaluated.

[2] = system: neurons in astrocyte/neuron co-culture; assay: Brain cell damage induced by hydrogen peroxide treatment (neuroprotective effect, microscope observation); assay type: cell-based; conditions: Rattus norvegicus, hydrogen peroxide (250 μM), 24 hours, read-out: Concentration for complete inhibition of neuronal death
Procedure: as §1, §2, §3

melting point [°C]	SMILES	EC50 [1] [nM]	EC100 [2] [µM]
149	CN(C)c1cc(N2CCOCC2)nc(N2CCN(c3ccccc3)CC2)n1 [Compound 2, 4-dimethylamino-6-morpholino-2-(4-phenylpiperazin-1-yl)pyrimidine]	18400	–
–	c1ccc2c(c1)CCN(c1nc(N3CCOCC3)cc(N3CCOCC3)n1)C2 [Compound 6, 4,6-dimorpholino-2-(1,2,3,4-tetrahydro-2H-isoquinolin-2-yl)pyrimidine]	8240	–
–	c1ccc(N2CCN(c3nc(N4CCNCC4)cc(N4CCOCC4)n3)CC2)cc1 [Compound 52, 4-morpholino-2-(4-phenylpiperazin-1-yl)-6-(piperazin-1-yl)pyrimidine]	3160	30
–	CCCNc1cc(N2CCOCC2)nc(N2CCN(c3ccccc3)CC2)n1 [Compound 56, 4-morpholino-2-(4-phenylpiperazin-1-yl)-6-propylaminopyrimidine]	2950	10
–	Cc1ccccc1N1CCN(c2nc(N3CCOCC3)cc(N3CCN(c4ccccc4)CC3)n2)CC1 [Compound 61, 2-[4-(2-methylphenyl)piperazin-1-yl]-6-morpholino-4-(4-phenylpiperazin-1-yl)pyrimidine]	6450	10
–	Nc1c(N2CCOCC2)nc(N2CCOCC2)nc1N1CCC(Cc2ccccc2)CC1 [Compound 67, 5-amino-4-(4-benzylpiperidin-1-yl)-2,6-dimorpholinopyrimidine]	1780	–
–	CN(C)c1nc(N2CCC(Cc3ccccc3)CC2)nc(N2CCOCC2)c1N [Compound 68, 5-amino-2-(4-benzylpiperidin-1-yl)-4-dimethylamino-6-morpholinopyrimidine]	860	–
–	CC1CCc2cc(F)ccc2N1c1nc(N2CCOCC2)c(N)c(N2CCOCC2)n1 (stereo not shown) [Compound 71, 5-amino-2-(6-fluoro-2-methyl-1,2,3,4-tetrahydroquinolin-1-yl)-4,6-dimorpholinopyrimidine]	1960	–
–	CC(=O)Nc1c(N2CCOCC2)nc(N2CCOCC2)nc1N1CCC(Cc2ccccc2)CC1 [Compound 78, 5-acetylamino-4-(4-benzylpiperidin-1-yl)-2,6-dimorpholinopyrimidine]	9750	30
–	N#CC1(c2ccccc2)CCN(c2nc(N3CCOCC3)nc(N3CCOCC3)c2F)CC1 [Compound 115, 4-(4-cyano-4-phenylpiperidin-1-yl)-5-fluoro-2,6-dimorpholinopyrimidine]	630	–
–	Fc1c(N2CCOCC2)nc(N2CCN(C3CCCCC3)CC2)nc1N1CCOCC1 [Compound 123, 2-(4-cyclohexylpiperazin-1-yl)-5-fluoro-4,6-dimorpholinopyrimidine]	2980	10
140 to 141	Fc1ccccc1N1CCN(c2nc(N3CCN(c4ccccc4)CC3)nc(N3CCOCC3)c2F)CC1 [Compound 125, 5-fluoro-4-[4-(2-fluorophenyl)piperazin-1-yl]-6-morpholino-2-(4-phenylpiperazin-1-yl)pyrimidine]	560	–
131 to 132	Fc1ccccc1N1CCN(c2nc(N3CCOCC3)c(F)c(N3CCN(c4ccccc4F)CC3)n2)CC1 [Compound 126, 2,4-bis[4-(2-fluorophenyl)piperazin-1-yl]-5-fluoro-6-morpholinopyrimidine]	800	–
–	Cc1ccccc1N1CCN(c2nc(N3CCOCC3)c(F)c(N3CCN(c4ccccc4)CC3)n2)CC1 [Compound 128, 5-fluoro-2-[4-(2-methylphenyl)piperazin-1-yl]-6-morpholino-4-(4-phenylpiperazin-1-yl)pyrimidine]	300	3
–	CCN(CC)c1ccc(CCCCc2nc(N3CCOCC3)c(N)c(N3CCOCC3)n2)cc1 [Compound 145, 5-amino-2-[4-(4-diethylaminophenyl)butyl]-4,6-dimorpholinopyrimidine]	670	–
–	Cc1ccc(N2CCN(c3nc(N4CCOCC4)c(F)c(N4CCN(C(=O)OC(C)(C)C)CC4)n3)CC2)cc1 [Compound 153, 4-[4-(tert-butoxycarbonyl)piperazin-1-yl]-5-fluoro-2-[4-(4-methylphenyl)piperazin-1-yl]-6-morpholinopyrimidine]	450	3
–	Cc1ccc(N2CCN(c3nc(N4CCOCC4)nc(N4CCN(C)CC4)c3F)CC2)cc1 [Compound 155, 5-fluoro-4-[4-(4-methylphenyl)piperazin-1-yl]-6-(4-methylpiperazin-1-yl)-2-morpholinopyrimidine]	320	3
–	Cc1ccc(N2CCN(c3nc(NCCN4CCNCC4)nc(N4CCOCC4)c3F)CC2)cc1 [Compound 158, 5-fluoro-4-[4-(4-methylphenyl)piperazin-1-yl]-6-morpholino-2-[2-(piperazin-1-yl)-ethylamino]pyrimidine]	160	1
–	Cc1ccc(N2CCN(c3nc(N4CCOCC4)nc(NCCN4CCOCC4)c3F)CC2)cc1 [Compound 160, 5-fluoro-4-[4-(4-methylphenyl)piperazin-1-yl]-2-morpholino-6-(2-morpholinoethylamino)pyrimidine]	1080	3
–	CN1CCN(c2nc(N3CCCc4ccccc43)nc(N3CCOCC3)c2F)CC1 [Compound 167, 5-fluoro-4-(4-methylpiperazin-1-yl)-6-morpholino-2-(1,2,3,4-tetrahydro-1H-quinolin-1-yl)pyrimidine]	280	–
–	CC(C)(C)OC(=O)N1CCN(c2nc(N3CCCc4ccccc43)nc(N3CCOCC3)c2F)CC1 [Compound 168, 4-[4-(tert-butoxycarbonyl)piperazin-1-yl]-5-fluoro-6-morpholino-2-(1,2,3,4-tetrahydro-1H-quinolin-1-yl)pyrimidine]	310	3
–	CN1CCN(c2nc(N3CCOCC3)nc(N3CCN(c4ccccc4)CC3)c2F)CC1 [Compound 171, 5-fluoro-4-(4-methylpiperazin-1-yl)-2-morpholino-6-(4-phenylpiperazin-1-yl)pyrimidine]	490	–
–	COc1ccc(/C=C/c2nc(NCCN)c(N)c(N3CCOCC3)n2)cc1 [Compound 174, 5-amino-4-(2-aminoethylamino)-2-[2-(4-methoxyphenyl)vinyl]-6-morpholinopyrimidine]	3110	10
–	Cc1cccc(N2CCN(c3nc(N4CCNCC4)nc(N4CCOCC4)c3F)CC2)c1C [Compound 178, 5-fluoro-4-morpholino-2-(1-piperazinyl)-6-[4-(2,3-xylyl)piperazin-1-yl]pyrimidine]	480	3
–	Cc1cccc(N2CCN(c3nc(N4CCOCC4)c(F)c(N4CCN(C(=O)OC(C)(C)C)CC4)n3)CC2)c1C [Compound 179, 4-(4-tert-butoxycarbonylpiperazin-1-yl)-5-fluoro-6-morpholino-2-[4-(2,3-xylyl)piperazin-1-yl]pyrimidine]	340	3
–	CN1CCN(c2nc(N3CCN(c4ccccc4Cl)CC3)nc(N3CCOCC3)c2F)CC1 [Compound 187, 2-[4-(2-chlorophenyl)piperazin-1-yl]-5-fluoro-6-(4-methylpiperazin-1-yl)-4-morpholino pyrimidine]	330	1
–	CCOc1ccccc1N1CCN(c2nc(N3CCOCC3)c(F)c(N3CCN(C)CC3)n2)CC1 [Compound 190, 2-[4-(2-ethoxyphenyl)piperazin-1-yl]-5-fluoro-4-(4-methylpiperazin-1-yl)-6-morpholinopyrimidine]	340	3
127 to 128	Cc1cccc(N2CCN(c3nc(N4CCN(Cc5ccncc5)CC4)nc(N4CCOCC4)c3F)CC2)c1C [Compound 191, 5-fluoro-4-morpholino-2-[4-(4-pyridinylmethyl)piperazin-1-yl]-6-[4-(2,3-xylyl)piperazin-1-yl]-pyrimidine]	730	–
77 to 78	Cc1cccc(N2CCN(c3nc(N4CCN(Cc5ccc(N)cc5)CC4)nc(N4CCOCC4)c3F)CC2)c1C [Compound 194, 2-[4-(4-aminobenzyl)piperazin-1-yl]-5-fluoro-4-morpholino-6-[4-(2,3-xylyl)piperazin-1-yl]pyrimidine]	–	–

Source: patent publication US8563715B2, “Pyrimidine derivative having cell protecting effect and uses thereof” (Zenyaku Kogyo Kabushikikaisha, priority 2008, dated 2013)
